Results on 1 compound are retold here after PMC8344022, “Small-molecule inhibitor of AF9/ENL-DOT1L/AF4/AFF4 interactions suppresses malignant gene expression and tumor growth” (Theranostics, 2021).

The subject of series [1] is RPMI-8226 cells. The series can be described thus: Antiproliferation assay (XTT). The series is classed as cell-based. As to conditions: 14-day incubation, read-out: Cytotoxicity EC50. How it is done: (§1) Antiproliferation assay. Proliferation inhibition assays for suspension blood cancer cells were performed using an XTT assay kit (Roche). Proliferation inhibition assays for solid tumor cell lines MCF-7, MDA-MB-231, Panc1, Panc28 were performed using an MTT assay (Sigma). The antiproliferation EC50 values were determined using Prism 5 and the reported results were the mean values of at least three independent experiments. The incubation time for compound 1 was 7 days and that for EPZ4777 was 14 days.
(Tetrazolium dyes change colour on reduction, which living cells bring about.)

For series [2], the system named is U266 cells. Description: Antiproliferation assay (XTT). The series is classed as cell-based. The conditions noted are these: 14-day incubation, read-out: Cytotoxicity EC50. The procedure:
as §1

Series [3] relates to MV4;11 cells. Description: Antiproliferation assay (XTT). The series is classed as cell-based. The conditions noted are these: 14-day incubation, read-out: Cytotoxicity EC50. The procedure: as §1
Series [4] deals with Molm-13 cells. Description: Antiproliferation assay (XTT). The series is classed as cell-based. The conditions noted are these: 14-day incubation, read-out: Cytotoxicity EC50. The procedure:
as §1

For series [5], the system named is Panc-1 cells. Description: Antiproliferation assay (MTT). The series is classed as cell-based. As to conditions: 14-day incubation, read-out: Cytotoxicity EC50. The procedure:
as §1

In series [6] the test system is Panc-28 cells. Description: Antiproliferation assay (MTT). The series is classed as cell-based. The conditions noted are these: 14-day incubation, read-out: Cytotoxicity EC50. How it is done:
as §1

For series [7], the system named is MCF-7 cells. The series can be described thus: Antiproliferation assay (MTT). The format is cell-based. As to conditions: 14-day incubation, read-out: Cytotoxicity EC50. How it is done:
as §1

The test system of series [8] is MDA-MB-231 cells. Description: Antiproliferation assay (MTT). The series is classed as cell-based. The conditions noted are these: 14-day incubation, read-out: Cytotoxicity EC50. How it is done:
as §1

The subject of series [9] is THP-1 cells. Details: method as in earlier work. As to conditions: read-out: Cytotoxicity EC50; cited from earlier work.
Series [10] concerns Jurkat cells. More on the design: method as in earlier work. As to conditions: read-out: Cytotoxicity EC50; cited from earlier work.
The test system of series [11] is nuclear protein levels in Molm-13 cells. The series can be described thus: Western blot of nuclear proteins. The series is classed as cell-based. As to conditions: 3 days. The procedure:
Next, we investigated how compound 1 affects these transcription cofactors in the nucleus, where they regulate gene expression. […] DOT1L inhibitor EPZ4777 [25] reduced the methylation levels of H3K79, but not other proteins (Figure 3B). […] In this regard, despite lack of activity against DOT1L, compound 1 can mimic EPZ4777 to reduce H3K79 methylation.
Western blot. 3x10^6 cells/well were treated with increasing concentrations of a compound for 3 days and nuclear proteins extracted with the EpiQuik Nuclear Extraction Kit (Epigentek) according to the manufacturer's protocol. Equal amounts of proteins were separated on SDS-PAGE and transferred to PVDF membranes. The blots were probed with primary antibodies, followed by anti-rabbit or anti-mouse IgG (Thermo Scientific) secondary antibodies. The primary antibodies used in this research were MBP Mouse mAb (#2396, Cell signaling), DOT1L Rabbit mAb (#77087, Cell signaling), MLL-N Rabbit mAb (#14689, Cell signaling), ENL Rabbit mAb (#14893, Cell signaling), Di-Methyl-Histone H3K79 Rabbit mAb (#5427, Cell signaling), Mono-Methyl-Histone H3K79 Rabbit mAb (#9398, Cell signaling), Histone H3 Rabbit mAb (#4499, Cell signaling), AF4 Rabbit pAb (#NBP1-28705, Novusbio) and AFF4 Rabbit pAb (#ab103586, Abcam).
Background: In western blotting, separated proteins are transferred to a membrane and probed.

Series [12] relates to H3K79me2 at gene promoters in Molm-13 cells. The series can be described thus: Chromatin immunoprecipitation (ChIP)-qPCR. The format is cell-based. The conditions noted are these: 2 μM. How it is done:
(§2) Next, compound 1 was tested for its ability to change expression of characteristic MLL-r leukemia genes HoxA9, Meis1 and Myc. Myc is also overexpressed in a broad range of AML and other cancers. […] (Figure S5), presumably because SEC is not recruited there.
Chromatin immunoprecipitation. […] Cells were lysed with nuclear lysis buffer and sonicated to ~100-1000 bp fragments, which was incubated at 4 °C overnight with the H3K79me2 antibody (#5427, Cell signaling) and IgG (C15410206, Diagenode). Protein A/G Magnetic Beads (10 µL, Novus Biologicals) were added and incubated for 2 h. The beads were washed 3x with RIPA buffer and 2x with TE buffer. DNA on the beads was eluted for 2 hours at 68 °C in 100 μL of an elution buffer (20 mM Tris pH 7.5, 5 mM EDTA, 50 mM NaCl, 1% SDS, 50 μg/ml proteinase K) (2x), and purified using a ChIP DNA Clean & Concentrator kit (Novus Biologicals). qPCR was done using the method described above.
On the technique in general: Quantitative PCR measures a nucleic acid by following its amplification.

In series [13] the test system is Kasumi-1 cells. More on the design: method as in earlier work. The conditions noted are these: read-out: Cytotoxicity EC50; cited from earlier work.
Series [14] concerns HL60 cells. Details: method as in earlier work. As to conditions: read-out: Cytotoxicity EC50; cited from earlier work.
For series [15], the system named is HoxA9, Meis1 and Myc expression in Molm-13 cells. The series can be described thus: qPCR of MLL target genes. The series is classed as cell-based. The conditions noted are these: 4 days. The procedure: as §2
(§3) RNA extraction and Quantitative real-time PCR (qPCR). 10^5 cells/ml were incubated with a compound for 4 days and the RNA was extracted using RNeasy mini kit (#74104, Qiagen). 100-1000 ng of total RNA was reverse transcribed using iScript™ Reverse Transcription Supermix (Bio-Rad) using the manufacturer's protocol. Quantitative real-time PCR was carried out using Fast SYBR Green Master Mix (Applied Biosystems) according to the manufacturer's instructions. Measurements were performed in triplicate, using GAPDH as the reference gene. Real-time PCR was performed using Biosystems Step One Plus detection system. The following sequences of primers are used: […]

For series [16], the system named is HoxA9, Meis1 and Myc expression in MV4;11 cells. Description: qPCR of MLL target genes. The format is cell-based. As to conditions: 4 days. How it is done: as §2, §3

Molecules are shown by their SMILES. Where only a bound is given, the exact number is not on record here.

Broadly, the EC50 is the concentration needed to bring the measured effect to its halfway point. As to `CC(C)N(CCCNC(=O)Nc1ccc(C(C)(C)C)cc1)C[C@H]1O[C@@H](n2ccc3c(N)ncnc32)[C@H](O)[C@@H]1O` [EPZ4777, reference compound], the EC50 is more than 50 µM in [1]; more than 50 µM in series [2]; 1.1 ± 0.3 µM in series [3]; 1.2 ± 0.2 µM in series [4]; more than 50 µM in [5]; more than 50 µM in series [6]. In addition, the EC50 was more than 50 µM in series [7]; more than 50 µM in series [8]; 3.4 µM in [9]; more than 50 µM in series [10]; 33 µM in series [13]; more than 50 µM in [14]. Further, the “Nuclear levels of DOT1L, H3K79me1 and me2, ENL and AFF4” value in series [11] was “only reduced those of H3K79me1 and me2, but not other proteins”. Besides, in [12], the “H3K79me2 in the gene promoters of HoxA9 and Myc” value is on record as “decreased levels of H3K79me2”. Also, the “Expression of MLL target genes HoxA9, Meis1 and Myc” value in [15] and in [16] was “behaved similarly” throughout.
